Data reported in ChEMBL document CHEMBL5649169 (ChemMedChem, 2018).

Key:
[1] = target: Ephrin type-A receptor 6 (Homo sapiens, UniProt Q9UF33); assay: Inhibition of Nano Luc-fused full length C-terminal EPHA6 (unknown origin) expressed in HEK293T cells using NanoGlo as substrate incubated for 2 hrs in presence of tracer by NanoBRET assay; assay type: cell-based
[2] = target: Coatomer subunit delta (Homo sapiens) (UniProt P48444); note: assay method not described here
[3] = organism: Homo sapiens; note: assay method not described here
[4] = target: ATP synthase F(0) complex subunit g, mitochondrial (Homo sapiens) (UniProt O75964); note: assay method not described here
[5] = target: 5-azacytidine-induced protein 2 (Homo sapiens) (UniProt Q9H6S1); note: assay method not described here
[6] = target: G1/S-specific cyclin-E1 (Homo sapiens) (UniProt P24864); note: assay method not described here
[7] = target: CDP-diacylglycerol--inositol 3-phosphatidyltransferase (Homo sapiens) (UniProt O14735); note: assay method not described here
[8] = target: Cyclin-dependent kinase 12 (Homo sapiens) (UniProt Q9NYV4); note: assay method not described here
[9] = target: Cyclin-dependent kinase-like 5 (Homo sapiens) (UniProt O76039); note: assay method not described here
[10] = target: MICOS complex subunit MIC19 (Homo sapiens) (UniProt Q9NX63); note: assay method not described here
[11] = target: Calponin-2 (Homo sapiens) (UniProt Q99439); note: assay method not described here
[12] = target: Coronin-1A (Homo sapiens) (UniProt P31146); note: assay method not described here
[13] = target: Eukaryotic translation initiation factor 3 subunit G (Homo sapiens) (UniProt O75821); note: assay method not described here
[14] = target: Src substrate cortactin (Homo sapiens) (UniProt Q14247); note: assay method not described here
[15] = organism: Homo sapiens; remark: listed apart in the source; note: assay method not described here
[16] = target: Fanconi anemia group I protein (Homo sapiens) (UniProt Q9NVI1); note: assay method not described here
[17] = target: Fructosamine-3-kinase (Homo sapiens) (UniProt Q9H479); note: assay method not described here
[18] = target: Glycine--tRNA ligase (Homo sapiens) (UniProt P41250); note: assay method not described here
[19] = target: Golgi apparatus protein 1 (Homo sapiens) (UniProt Q92896); note: assay method not described here
[20] = organism: Homo sapiens; remark: listed apart in the source; note: assay method not described here
[21] = target: Glycogen synthase kinase-3 alpha (Homo sapiens) (UniProt P49840); note: assay method not described here
[22] = target: Heterogeneous nuclear ribonucleoproteins A2/B1 (Homo sapiens) (UniProt P22626); note: assay method not described here
[23] = target: Heterogeneous nuclear ribonucleoprotein A3 (Homo sapiens) (UniProt P51991); note: assay method not described here
[24] = target: MICOS complex subunit MIC60 (Homo sapiens) (UniProt Q16891); note: assay method not described here
[25] = target: Insulin receptor (Homo sapiens) (UniProt P06213); note: assay method not described here
[26] = target: Dolichyl-diphosphooligosaccharide--protein glycosyltransferase subunit KCP2 (Homo sapiens) (UniProt Q8N6L1); note: assay method not described here
[27] = target: Delta(14)-sterol reductase LBR (Homo sapiens) (UniProt Q14739); note: assay method not described here
[28] = target: Mitogen-activated protein kinase kinase kinase 5 (Homo sapiens) (UniProt Q99683); note: assay method not described here
[29] = target: MAP/microtubule affinity-regulating kinase 3 (Homo sapiens) (UniProt P27448); note: assay method not described here
[30] = target: DNA replication licensing factor MCM4 (Homo sapiens) (UniProt P33991); note: assay method not described here
[31] = target: Malate dehydrogenase, mitochondrial (Homo sapiens) (UniProt P40926); note: assay method not described here
[32] = target: Thiol S-methyltransferase TMT1A (Homo sapiens) (UniProt Q9H8H3); note: assay method not described here
[33] = target: Nuclear cap-binding protein subunit 1 (Homo sapiens) (UniProt Q09161); note: assay method not described here
[34] = target: Ribosyldihydronicotinamide dehydrogenase [quinone] (Homo sapiens) (UniProt P16083); note: assay method not described here
[35] = target: Nuclear pore complex protein Nup160 (Homo sapiens) (UniProt Q12769); note: assay method not described here
[36] = target: Proliferating cell nuclear antigen (Homo sapiens) (UniProt P12004); note: assay method not described here
[37] = target: Phosphatidylinositol 5-phosphate 4-kinase type-2 alpha (Homo sapiens) (UniProt P48426); note: assay method not described here
[38] = target: Serine/threonine-protein kinase N1 (Homo sapiens) (UniProt Q16512); note: assay method not described here
[39] = target: cAMP-dependent protein kinase catalytic subunit alpha (Homo sapiens) (UniProt P17612); note: assay method not described here
[40] = target: Protein kinase C theta type (Homo sapiens) (UniProt Q04759); note: assay method not described here
[41] = target: GTP-binding nuclear protein Ran (Homo sapiens) (UniProt P62826); note: assay method not described here
[42] = target: Protein RCC2 (Homo sapiens) (UniProt Q9P258); note: assay method not described here
[43] = target: Small ribosomal subunit protein eS4, X isoform (Homo sapiens) (UniProt P62701); note: assay method not described here
[44] = target: Protein S100-A6 (Homo sapiens) (UniProt P06703); note: assay method not described here
[45] = target: Serine/threonine-protein kinase SIK2 (Homo sapiens) (UniProt Q9H0K1); note: assay method not described here
[46] = target: T-complex protein 1 subunit alpha (Homo sapiens) (UniProt P17987); note: assay method not described here
[47] = target: Exportin-7 (Homo sapiens) (UniProt Q9UIA9); note: assay method not described here

Chain of MAP/microtubule affinity-regulating kinase 3 (Homo sapiens) (P27448 whole entry, looked up): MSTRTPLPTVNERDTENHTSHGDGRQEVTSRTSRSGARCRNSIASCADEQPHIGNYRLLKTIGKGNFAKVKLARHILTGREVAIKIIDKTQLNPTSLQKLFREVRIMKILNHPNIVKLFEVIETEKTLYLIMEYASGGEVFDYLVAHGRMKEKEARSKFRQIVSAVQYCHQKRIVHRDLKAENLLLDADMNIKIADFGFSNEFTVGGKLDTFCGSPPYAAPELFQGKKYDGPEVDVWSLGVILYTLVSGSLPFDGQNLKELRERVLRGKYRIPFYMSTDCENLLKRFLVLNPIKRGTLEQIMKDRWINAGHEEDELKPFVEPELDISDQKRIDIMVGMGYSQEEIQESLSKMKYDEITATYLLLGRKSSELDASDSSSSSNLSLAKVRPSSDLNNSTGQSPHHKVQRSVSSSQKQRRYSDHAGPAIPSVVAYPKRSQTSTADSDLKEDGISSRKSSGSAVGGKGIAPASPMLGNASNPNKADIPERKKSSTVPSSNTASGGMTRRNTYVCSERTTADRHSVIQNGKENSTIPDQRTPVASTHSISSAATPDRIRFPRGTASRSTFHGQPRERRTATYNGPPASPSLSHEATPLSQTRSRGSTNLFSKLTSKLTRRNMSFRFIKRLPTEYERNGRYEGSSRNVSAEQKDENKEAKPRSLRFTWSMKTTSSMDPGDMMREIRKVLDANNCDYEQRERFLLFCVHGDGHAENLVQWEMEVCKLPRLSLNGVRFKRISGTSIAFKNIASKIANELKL
Chain of ATP synthase F(0) complex subunit g, mitochondrial (Homo sapiens) (O75964 whole entry, one chain of several): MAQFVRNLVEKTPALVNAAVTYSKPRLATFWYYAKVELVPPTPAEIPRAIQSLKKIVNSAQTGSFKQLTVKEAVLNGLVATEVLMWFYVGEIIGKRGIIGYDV
Chain of Fanconi anemia group I protein (Homo sapiens) (Q9NVI1 whole entry): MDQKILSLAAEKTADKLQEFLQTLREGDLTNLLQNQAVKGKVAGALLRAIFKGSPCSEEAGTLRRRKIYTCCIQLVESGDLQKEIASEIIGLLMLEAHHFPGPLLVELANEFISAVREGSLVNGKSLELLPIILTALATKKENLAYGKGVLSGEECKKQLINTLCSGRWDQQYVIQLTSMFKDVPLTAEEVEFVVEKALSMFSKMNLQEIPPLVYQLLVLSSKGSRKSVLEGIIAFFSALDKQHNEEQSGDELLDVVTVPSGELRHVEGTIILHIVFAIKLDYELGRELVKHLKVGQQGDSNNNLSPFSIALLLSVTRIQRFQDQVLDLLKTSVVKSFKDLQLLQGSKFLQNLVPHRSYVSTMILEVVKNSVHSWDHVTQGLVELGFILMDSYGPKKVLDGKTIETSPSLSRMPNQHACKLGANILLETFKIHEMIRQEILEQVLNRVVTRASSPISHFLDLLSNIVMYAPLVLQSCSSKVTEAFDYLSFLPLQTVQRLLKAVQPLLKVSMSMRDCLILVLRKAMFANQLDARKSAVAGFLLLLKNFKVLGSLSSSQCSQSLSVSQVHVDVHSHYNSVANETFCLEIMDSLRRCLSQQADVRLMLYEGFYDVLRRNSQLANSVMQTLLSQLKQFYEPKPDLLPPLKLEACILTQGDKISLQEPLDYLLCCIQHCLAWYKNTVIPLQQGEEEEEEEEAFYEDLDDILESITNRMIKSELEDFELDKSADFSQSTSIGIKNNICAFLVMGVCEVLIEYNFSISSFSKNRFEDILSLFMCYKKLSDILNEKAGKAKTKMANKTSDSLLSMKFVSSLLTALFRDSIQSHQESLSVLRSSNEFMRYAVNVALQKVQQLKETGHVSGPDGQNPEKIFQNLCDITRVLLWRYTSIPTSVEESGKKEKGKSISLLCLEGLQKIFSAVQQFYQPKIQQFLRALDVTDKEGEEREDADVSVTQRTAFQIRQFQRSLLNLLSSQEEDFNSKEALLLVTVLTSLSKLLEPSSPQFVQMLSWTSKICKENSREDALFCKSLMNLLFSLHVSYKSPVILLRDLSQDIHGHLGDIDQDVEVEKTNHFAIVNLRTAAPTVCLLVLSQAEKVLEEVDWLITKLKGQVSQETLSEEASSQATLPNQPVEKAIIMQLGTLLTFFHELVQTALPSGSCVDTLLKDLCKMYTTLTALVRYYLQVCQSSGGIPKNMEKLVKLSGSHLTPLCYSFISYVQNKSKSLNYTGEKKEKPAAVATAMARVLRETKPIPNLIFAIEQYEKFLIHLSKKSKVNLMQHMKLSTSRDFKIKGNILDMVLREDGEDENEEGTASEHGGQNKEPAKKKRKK
Chain of Golgi apparatus protein 1 (Homo sapiens) (Q92896 whole entry): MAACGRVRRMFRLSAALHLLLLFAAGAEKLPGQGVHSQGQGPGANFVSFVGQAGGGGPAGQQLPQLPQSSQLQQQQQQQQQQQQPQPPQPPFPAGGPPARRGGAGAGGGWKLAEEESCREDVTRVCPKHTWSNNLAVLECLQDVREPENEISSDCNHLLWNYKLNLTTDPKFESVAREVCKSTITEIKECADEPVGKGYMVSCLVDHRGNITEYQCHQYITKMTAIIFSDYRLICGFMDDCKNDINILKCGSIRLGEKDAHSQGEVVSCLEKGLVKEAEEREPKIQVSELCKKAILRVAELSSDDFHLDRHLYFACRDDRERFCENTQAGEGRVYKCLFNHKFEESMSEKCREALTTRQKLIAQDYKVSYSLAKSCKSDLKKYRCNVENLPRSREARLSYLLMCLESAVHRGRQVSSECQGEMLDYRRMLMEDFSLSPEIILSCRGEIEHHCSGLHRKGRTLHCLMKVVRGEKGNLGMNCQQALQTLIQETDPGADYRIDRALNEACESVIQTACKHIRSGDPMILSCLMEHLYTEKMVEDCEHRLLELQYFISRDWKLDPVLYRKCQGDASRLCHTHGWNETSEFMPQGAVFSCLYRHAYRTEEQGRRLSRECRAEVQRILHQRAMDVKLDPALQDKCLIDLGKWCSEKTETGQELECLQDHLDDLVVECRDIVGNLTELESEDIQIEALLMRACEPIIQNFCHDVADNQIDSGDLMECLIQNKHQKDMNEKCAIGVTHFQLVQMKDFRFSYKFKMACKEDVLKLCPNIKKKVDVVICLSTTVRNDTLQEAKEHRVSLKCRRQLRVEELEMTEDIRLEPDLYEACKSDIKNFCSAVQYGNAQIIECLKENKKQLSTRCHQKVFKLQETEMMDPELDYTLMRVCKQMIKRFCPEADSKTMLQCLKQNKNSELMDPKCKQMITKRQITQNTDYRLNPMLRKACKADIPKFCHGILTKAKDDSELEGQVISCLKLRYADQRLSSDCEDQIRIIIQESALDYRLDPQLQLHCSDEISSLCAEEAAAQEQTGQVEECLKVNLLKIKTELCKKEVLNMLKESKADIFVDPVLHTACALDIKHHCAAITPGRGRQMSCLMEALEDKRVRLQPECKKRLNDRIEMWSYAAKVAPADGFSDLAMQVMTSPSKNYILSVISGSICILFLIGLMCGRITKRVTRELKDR
Chain of Dolichyl-diphosphooligosaccharide--protein glycosyltransferase subunit KCP2 (Homo sapiens) (Q8N6L1 whole entry): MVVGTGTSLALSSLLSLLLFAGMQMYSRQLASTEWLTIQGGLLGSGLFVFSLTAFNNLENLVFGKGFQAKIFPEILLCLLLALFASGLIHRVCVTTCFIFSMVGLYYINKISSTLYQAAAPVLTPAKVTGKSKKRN
Chain of Coronin-1A (Homo sapiens) (P31146 whole entry): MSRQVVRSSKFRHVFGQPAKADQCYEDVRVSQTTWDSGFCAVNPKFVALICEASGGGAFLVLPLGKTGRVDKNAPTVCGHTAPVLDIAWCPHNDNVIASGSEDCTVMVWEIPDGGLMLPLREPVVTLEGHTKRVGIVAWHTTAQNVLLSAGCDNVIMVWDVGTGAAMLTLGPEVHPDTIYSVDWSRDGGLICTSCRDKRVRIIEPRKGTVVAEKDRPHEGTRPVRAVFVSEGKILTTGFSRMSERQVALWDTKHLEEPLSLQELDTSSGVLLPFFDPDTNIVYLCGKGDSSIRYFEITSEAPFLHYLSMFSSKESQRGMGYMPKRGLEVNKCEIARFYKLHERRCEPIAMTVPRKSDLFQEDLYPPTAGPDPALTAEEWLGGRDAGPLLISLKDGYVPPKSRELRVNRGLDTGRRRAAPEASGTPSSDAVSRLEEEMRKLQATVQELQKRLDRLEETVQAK
Chain of Phosphatidylinositol 5-phosphate 4-kinase type-2 alpha (Homo sapiens) (P48426 whole entry): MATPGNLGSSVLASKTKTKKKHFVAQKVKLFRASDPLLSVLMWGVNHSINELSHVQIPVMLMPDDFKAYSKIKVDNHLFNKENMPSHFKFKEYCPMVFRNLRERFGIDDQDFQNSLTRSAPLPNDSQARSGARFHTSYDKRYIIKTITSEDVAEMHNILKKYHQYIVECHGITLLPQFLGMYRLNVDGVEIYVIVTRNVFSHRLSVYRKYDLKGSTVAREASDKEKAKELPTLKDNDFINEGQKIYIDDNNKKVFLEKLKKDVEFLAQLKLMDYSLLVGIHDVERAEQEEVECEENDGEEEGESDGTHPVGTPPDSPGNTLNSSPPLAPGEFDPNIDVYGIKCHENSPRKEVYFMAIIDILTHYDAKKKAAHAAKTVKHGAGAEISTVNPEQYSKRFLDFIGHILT
Chain of T-complex protein 1 subunit alpha (Homo sapiens) (P17987 whole entry, one chain of several): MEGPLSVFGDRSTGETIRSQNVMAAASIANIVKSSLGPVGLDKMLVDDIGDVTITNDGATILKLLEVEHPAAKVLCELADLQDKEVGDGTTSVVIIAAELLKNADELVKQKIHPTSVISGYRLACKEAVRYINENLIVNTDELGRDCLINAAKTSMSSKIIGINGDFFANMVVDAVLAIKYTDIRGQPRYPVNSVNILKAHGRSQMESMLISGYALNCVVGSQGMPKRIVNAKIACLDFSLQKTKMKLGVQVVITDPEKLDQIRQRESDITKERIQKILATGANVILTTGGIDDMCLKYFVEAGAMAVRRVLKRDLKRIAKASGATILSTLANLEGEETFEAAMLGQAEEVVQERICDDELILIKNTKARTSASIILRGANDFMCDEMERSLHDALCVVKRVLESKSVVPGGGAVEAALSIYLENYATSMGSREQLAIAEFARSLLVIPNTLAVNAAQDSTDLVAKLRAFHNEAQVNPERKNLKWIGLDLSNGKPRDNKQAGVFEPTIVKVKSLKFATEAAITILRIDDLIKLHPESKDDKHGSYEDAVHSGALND

SMILES: Cc1ccc(C(=O)Nc2cccc(C(F)(F)F)c2)cc1Nc1nc(-c2cccnc2)nc2c1cnn2C
- IC50 [1]: 0.263 µM
- ED50 [2]: 2.38 µM
- ED50 [3]: 106 µM
- ED50 [4]: 2.64 µM
- ED50 [5]: 0.0383 µM
- ED50 [6]: 0.103 µM
- ED50 [7]: 0.000993 µM
- ED50 [8]: 0.00103 µM
- ED50 [9]: 0.00162 µM
- ED50 [10]: 0.0271 µM
- ED50 [11]: 85.5 µM
- ED50 [12]: 16.5 µM
- ED50 [13]: 0.00468 µM
- ED50 [14]: 0.0605 µM
- ED50 [15]: 3.14 µM
- ED50 [16]: 13 µM
- ED50 [17]: 7.31 µM
- ED50 [18]: 0.0374 µM
- ED50 [19]: 6.56 µM
- ED50 [20]: 0.0217 µM
- ED50 [21]: 0.00363 µM
- ED50 [22]: 0.0823 µM
- ED50 [23]: 0.174 µM
- ED50 [24]: 5.75 µM
- ED50 [25]: 0.163 µM
- ED50 [26]: 0.164 µM
- ED50 [27]: 5.78 µM
- ED50 [28]: 0.121 µM
- ED50 [29]: 19.1 µM
- ED50 [30]: 73.3 µM
- ED50 [31]: 0.0198 µM
- ED50 [32]: 30.4 µM
- ED50 [33]: 0.000799 µM
- ED50 [34]: 0.0365 µM
- ED50 [35]: 0.878 µM
- ED50 [36]: 3.51 µM
- ED50 [37]: 0.0993 µM
- ED50 [38]: 0.626 µM
- ED50 [39]: 12900 µM
- ED50 [40]: 0.00259 µM
- ED50 [41]: 4.29 µM
- ED50 [42]: 92.2 µM
- ED50 [43]: 0.0296 µM
- ED50 [44]: 0.118 µM
- ED50 [45]: 2.14 µM
- ED50 [46]: 0.0234 µM
- ED50 [47]: 0.0517 µM

SMILES: Cc1ccc(C(=O)Nc2cccc(C(F)(F)F)c2)cc1Nc1nc(-c2cccnc2)nc2nn(C)cc12
- IC50 [1]: > 50 µM
- ED50 [2]: 8.38 µM
- ED50 [3]: 14.7 µM
- ED50 [4]: 0.214 µM
- ED50 [5]: 6.47 µM
- ED50 [6]: 0.0206 µM
- ED50 [7]: 0.0581 µM
- ED50 [8]: 0.435 µM
- ED50 [9]: 0.543 µM
- ED50 [10]: 0.0144 µM
- ED50 [11]: 79.2 µM
- ED50 [12]: 0.0507 µM
- ED50 [13]: 0.0104 µM
- ED50 [14]: 19.6 µM
- ED50 [15]: 9.29 µM
- ED50 [16]: 2.2 µM
- ED50 [17]: 0.291 µM
- ED50 [18]: 17.6 µM
- ED50 [19]: 0.162 µM
- ED50 [20]: 481 µM
- ED50 [21]: 0.0885 µM
- ED50 [22]: 0.0115 µM
- ED50 [23]: 1.07 µM
- ED50 [24]: 0.00743 µM
- ED50 [25]: 0.00863 µM
- ED50 [26]: 7.59 µM
- ED50 [27]: 0.0816 µM
- ED50 [28]: 0.125 µM
- ED50 [29]: 0.409 µM
- ED50 [30]: 0.0763 µM
- ED50 [31]: 0.0533 µM
- ED50 [32]: 2.97 µM
- ED50 [33]: 1.78 µM
- ED50 [34]: 4.12 µM
- ED50 [35]: 160 µM
- ED50 [36]: 0.502 µM
- ED50 [37]: 83.4 µM
- ED50 [38]: 0.245 µM
- ED50 [39]: 0.0643 µM
- ED50 [40]: 2.63 µM
- ED50 [41]: 0.116 µM
- ED50 [42]: 37.9 µM
- ED50 [43]: 0.515 µM
- ED50 [44]: 11.5 µM
- ED50 [45]: 8.18 µM
- ED50 [46]: 0.082 µM
- ED50 [47]: 0.0173 µM
